Source: patent US20250160329A1, “AGROCHEMICAL ADJUVANTS” (Croda International Pic, priority 2022, published 2025)

Test system: Botrytis cinerea (ATCC 90479)
Assay: Botrytis cinerea hyphal growth inhibition on PDA agar (colony diameter), adjuvant with or without pyraclostrobin
Type: cell-based
Conditions: for Fold Change in Growth Inhibition: 48 h, 22° C., relative to pyraclostrobin alone
Source text: As a measure of the adjuvant activity in relation to the activity of the fungicide alone (e.g. pyraclostrobin) to B. cinerea a value of percent inhibition (adjuvant and fungicide) divided by percent inhibition (fungicide) can be defined, with higher values desired. A value of 1 would therefore represent equal activity of the adjuvant/fungicide combination to the fungicide alone, whereas a value above 1 would represent higher activity with the adjuvant/fungicide combination than the fungicide alone. The actives of the present invention may have a value greater than 1. Preferably greater than 1.5, most preferably greater than 2.
Percent Inhibition—The percent inhibition will be understood to represent the amount the fungicide and/or adjuvant that inhibits the visible growth of the microorganism after 48 hours incubation at 22° C. relative to vehicle treated controls. This is calculated using the following formula:
[formula] • where: • ØC=diameter of the colony grown on agar supplemented with vehicle (i.e. vehicle treated control), and • ØT=diameter of the colony grown on agar supplemented with fungicide and/or adjuvant formulated in an appropriate vehicle (i.e. solvent such as water C2H5OH, CH3OH, CH3CN, DMSO).
Fold Change—The fold change is a measure of the adjuvant/fungicide combination in inhibiting a microorganism compared to the fungicide alone. This indicates how the adjuvant performs relative to the fungicide alone. This is calculated using the following formula:
INHAF/INHF • where: • INHAF=percent inhibition of fungal growth when treated with fungicide and adjuvant, and • INHF=percent inhibition of fungal growth when treated with fungicide alone.
Botrytis cinerea (ATCC 90479) was cultured on Difco Potato Dextrose Agar (PDA) for 7 days with diurnal UV cycles (12 h UV light and 12 h dark). Spores were harvested in a buffered, sterile saline solution (w/v: 0.9% NaCl with 1% Tween 80) and counted using a haemocytometer. The spore suspension was adjusted to a final concentration of 8.5×10^6 spores/mL to create a standardised inoculum.
To prepare hyphal fragments for adjuvant testing, 8.5×10^4 spores were used to inoculate 10 mL of Difco Potato Dextrose Broth in a 150×25 mm tube. The tube was incubated at 220 RPM, 22° C. for 48 hours.
To create hyphal fragments from the culture, the culture was transferred to a 50 mL plastic conical tube containing approximately 20 sterile 5 mm diameter glass beads and vortexed for 5 min. […]
Fungicides and adjuvants were dissolved in methanol and added to molten PDA (−50° C.) and then the agar was distributed in the wells of 12 well multiwell plates (1 mL/well). […] The plates were incubated at 22° C. for 48 hours and then the colony diameter was measured using a digital caliper. […]

O=C1N/C(=C\c2ccccc2)C(=O)N2CCCCC12 (stereo not shown) [DKP (Ia), cyclo(-dhPhe-Pip) diketopiperazine]
Fold Change in Growth Inhibition (adjuvant 32 μg/mL + pyraclostrobin (Pyra) 0.0156 μg/mL): 3.18 | Fold Change in Growth Inhibition (adjuvant 32 μg/mL + pyraclostrobin (Pyra) 0.0313 μg/mL): 1.36 | Fold Change in Growth Inhibition (adjuvant 32 μg/mL + pyraclostrobin (Pyra) 0.0625 μg/mL): 1.76 | fungicidal activity against B. cinerea (adjuvant alone) (adjuvant alone at […] (so in the source), no fungicide): no fungicidal activity
